Experimental data reported in PMC7982526, “Discovery of New α-Glucosidase Inhibitors: Structure-Based Virtual Screening and Biological Evaluation” (Frontiers in Chemistry, 2021).

Assays:
[1] = Cell viability assay (MTT); format: cell-based; conditions: human, LO2 cells (normal hepatocyte cell line), 48 h treatment, read-out: IC50 toward LO2 cells (cytotoxicity)
Procedure: The LO2 cell line was cultured in a proper medium supplemented with 10% fetal bovine serum in a humidified atmosphere of 5% CO2 at 37°C. Cell suspensions were plated in 96-well plates at a density of 2 × 10^4 […]. Compounds were solubilized in DMSO at six different concentrations. After incubation for 24 h, the cells were treated with various concentrations of tested substances for 48 h and then incubated with 100 μL of MTT at 37°C for 2 h. The formazan dye product was measured by the absorbance at 490 nm on a Tecan Spark multimode microplate reader (Switzerland).

[2] = molecular target: T1, α-Glucosidase (Sigma, G5003) derived from baker's yeast (Saccharomyces cerevisiae, UniProt P53341); experiment: biochemical; format: biochemical; conditions: for inhibition ratio against α-glycosidase: at 100 μM; for IC50: mean ± SD of three independent experiments, six concentrations, 37°C, pH 6.8, read-out: IC50 against α-glycosidase
T1 construct: purchased Sigma-Aldrich G5003
T1 sequence (P53341 whole entry): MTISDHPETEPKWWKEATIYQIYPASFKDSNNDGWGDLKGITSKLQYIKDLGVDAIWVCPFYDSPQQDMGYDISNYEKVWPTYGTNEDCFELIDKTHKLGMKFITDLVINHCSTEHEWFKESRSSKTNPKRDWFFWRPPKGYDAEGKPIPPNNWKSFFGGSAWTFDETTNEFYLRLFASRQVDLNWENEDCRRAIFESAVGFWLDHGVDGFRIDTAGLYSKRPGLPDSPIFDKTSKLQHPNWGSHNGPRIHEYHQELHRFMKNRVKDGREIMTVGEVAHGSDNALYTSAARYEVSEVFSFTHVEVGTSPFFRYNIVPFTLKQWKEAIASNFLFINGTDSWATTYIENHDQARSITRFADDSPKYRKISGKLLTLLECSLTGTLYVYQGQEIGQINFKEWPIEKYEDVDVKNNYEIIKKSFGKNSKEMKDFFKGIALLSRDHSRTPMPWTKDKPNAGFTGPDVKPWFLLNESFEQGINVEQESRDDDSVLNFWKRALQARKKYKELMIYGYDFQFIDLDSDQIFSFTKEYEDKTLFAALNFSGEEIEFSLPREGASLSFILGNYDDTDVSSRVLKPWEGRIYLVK
Procedure: The α-glucosidase inhibitory evaluation of the purchased 52 compounds was performed according to the previously described protocol ([Tang et al., 2014]; [Ye et al., 2019]). α-Glucosidase (Sigma, G5003) derived from baker’s yeast, and pNPG (Sigma, N1377) and the substrate were both purchased from Sigma-Aldrich. […] The compounds and α-glucosidase were preincubated in phosphate buffer (37°C, 15 min). Then, 25 μL substrate buffer was added to the system to start the reaction, and the incubation was continued at 37°C for 15 min. Finally, the reaction was terminated by the addition of 50 μL 0.2 M reaction termination solution. The optical density (OD) was measured at an absorbance wavelength of 405 nm using a microplate reader (Tecan, Switzerland). The IC50 values were estimated with six different concentrations, and each sample was measured three times in parallel experiments.

[3] = molecular target: T2, α-glucosidase (Saccharomyces cerevisiae, UniProt P53341); experiment: Fluorescence quenching experiment; format: binding, baker's yeast; conditions: increasing concentration of compound, 30 min, 37°C, excitation 290 nm
T2 construct: purchased Sigma-Aldrich G5003
T2 sequence (P53341 whole entry): as above
Procedure: According to the previously reported method ([Aguilar-Moncayo et al., 2010]), all fluorescence spectra were measured on a fluorescence spectrophotometer (Agilent Cary Eclipse) equipped with a 10.0-mm quartz cell and a thermostat bath. In the fluorescence spectrophotometer, α-glucosidase (1 U/ml) was pretreated with certain concentrations of inhibitors for 30 min at 37°C. 100 μL of the above solution (pH 6.8) was added accurately to the quartz cell. The blank was used for buffer spectrum values. The fluorescence emission spectra were measured at 37°C. The excitation wavelength was 290 nm, and the emission spectrum was recorded from 320 to 500 nm.

[4] = molecular target: T2, α-glucosidase; experiment: Kinetic assay, Lineweaver-Burk plot analysis; format: biochemical; conditions: for inhibition type: Lineweaver-Burk plot analysis; for Ki: Lineweaver-Burk plot, substrate pNPG, secondary plot of slopes, read-out: estimated Ki
Procedure: The inhibition type of the inhibitors against α-glucosidase activities was evaluated based on a described method ([Hou et al., 2009]). Increasing concentrations of substrates pNPG were used in the absence or presence of tested compounds at four different concentrations around the IC50 values. The inhibitory kinetics of the investigated compounds on α-glucosidase was analyzed using the Lineweaver–Burk plot of the substrate concentration and velocity.

Row | SMILES | IC50 at 48 h [1] [µM] | inhibition ratio against α-glycosidase [2] | IC50 [2] [µM] | fluorescence quenching of α-glycosidase [3] | inhibition type [4] | Ki [4] [µM]
1 | Cc1cccc(-c2cc3ncn(CC(=O)NC(=O)Nc4ccccc4)c(=O)c3s2)c1 [compound 7] | > 100 | above 50% | 17.4 ± 1.32 | gradually quenched in a type of concentration-dependent manner | noncompetitive | 24.2
2 | CSc1nc(N)nc(SCC(=O)c2ccc3c(c2)OCO3)c1C#N [compound 22] | > 100 | above 50% | 35.2 ± 2.14 | gradually quenched in a type of concentration-dependent manner | noncompetitive | 11.3
3 | O=C(Nc1ccccc1C(=O)NCc1ccco1)c1ccc(F)cc1 [compound 37] | > 100 | above 50% | 31.3 ± 3.11 | gradually quenched in a type of concentration-dependent manner | noncompetitive | 11.3
4 | COc1ccc(-c2c(C#N)c(SCc3nc4ccccc4[nH]3)nc(C)c2C(C)=O)cc1 [compound 44] | > 100 | above 50% | 9.99 ± 0.43 | gradually quenched in a type of concentration-dependent manner | noncompetitive | 15.4
